In patent US12516038B2, “Inhibitors of antigen presentation by HLA-DR” (Janssen Pharmaceutica NV, priority 2020, dated 2026):

Experiments:
[1] = system: HLA-DR4 restricted mouse T cell hybridoma line (DR4.CII.36.8) with HLA-DRB1*04:01-expressing Boleth cells; test: HLA-DR4-restricted peptide-specific T cell-based assay (hybridoma assay); conditions: inhibition of IL-2 production, CII259-273 peptide presented by Boleth cells, 6 h
Source text: (§1) The screening was made through two sets of HLA-DR/peptide-dependent assays: a peptide-dependent Homogeneous Time Resolved Fluorescence (HTRF) binding assay followed by an HLA-DR dependent, peptide-specific T cell functional assay (HLA-DR4-restricted peptide-specific T cell-based assay hybridoma assay). The HTRF binding assay was designed to measure the ability of the small molecule to inhibit the loading of a fluorescently labeled high-affinity peptide onto HLA-DR peptide binding groove. The peptide-specific T cell functional assay assesses T cell activation resulting from proper peptide presentation onto HLA-DR expressed on the surface of the antigen-presenting cells to the T cell and is used to screen compounds able to inhibit such HLA-DR/peptide-dependent T cell activation.
HLA-DR4-Restricted Peptide-Specific T Cell-Based Assay (Hybridoma Assay)
The hybridoma assay was used to measure compound inhibition of TL-2 production from an HLA-DR4 restricted mouse T cell hybridoma line (DR4.CII.36.8) that was antigen-specific for collagen II259-273 (CII259-273) peptide when presented with an HLA-DR4 expressing Antigen Presenting Cell (APC) cell line (i.e., Boleth).
To the HLA-DRB1*04:01-expressing B cell line (Boleth cell line from International Histocompatibility Working Group (IHWG), ref #IHW09031) was presented the collagen II 259-273 peptide (CII259-273, GIAGFKGEQGPKGEP) to mouse T cell hybridoma (DR4.CII.36.8 T cell hybridoma; clone 36.8, expressing a CII259-273-specific, HLA-DRB1*04:01-restricted T cell receptor). Upon proper CII259-273 peptide presentation, the T cell hybridoma was activated and thus produced IL-2 cytokine, whose level in the cell culture supernatant was detected using mouse IL-2 AlphaLISA kit (Perkin Elmer, Cat: AL511F).
This assay was performed in a 384-well plate (polypropylene V-bottom Greiner bio-one, ref #784075) by: (i) pre-incubation of 20 μL of 1.25 million/mL Boleth cells (25,000 cells) resuspended in DMEM/1% fetal calf serum (FCS; Gibco, ref #16140-071) with 20 μL of 2.5× final concentration of compound of interest in DMEM/1% serum/0.75% DMSO at 37° C. for 1 hr in the incubator, then (ii) 10 μL of 5 million/mL (50,000 cells) DR4.CII.36.8 T cell hybridoma cells resuspended in DMEM/1% FCS was added and incubated for 6 h at 37° C. in the incubator. Supernatant was then collected and mouse IL-2 detected using AlphaLISA kit (ref #AL511F). Compounds were tested in duplicate, with 8-point titration. Mean±SD of AlphaLISA units at each compound concentration was used for compound IC50 calculation. The negative control for this experiment was run without peptide stimulation and used a DMSO vehicle wherein no compound of interest was added. The positive control was run with peptide stimulation and used a DMSO vehicle wherein no compound of interest was added. Both the negative and positive controls were run in 8 replicates each. Curve fitting and IC50 calculation for dose response data was performed by GraphPad software 6 or higher (GraphPad Software, San Diego, CA). Dose response data was plotted versus the log of compound concentration and IC50 was determined using 4-parameter logistic (4-PL) curve fitting.

HLA-DRB1*0401 = HLA-DRB1*0401 (Homo sapiens (Human), UniProt P01903+P01911, A100K/A169T/DEL228-266/F76Y/I96L/K127E/L162R/M171V/N62H/P40V/Q125Y/R42H/S133A/S149N/S66Y/V115G/V209L/W38E); test: HLA-DR4 HTRF assay; assay type: binding; conditions: inhibition of loading of Alexa Fluor 647-labeled Cit-CII peptide onto HLA-DR4 (CLIP cleaved)
Source text: as §1
The HLA-DR4 HTRF assay is based on HTRF technology and designed to measure ability of compounds to prevent loading of high-affinity Alexa Fluor 647-labeled Citrullinated Collagen 111236-1249 peptide (named Cit-CII/AF647, aa1236-1249, LQYM-Cit-ADQAAGGLR; Alexa Fluor 647 dye commercially available from Invitrogen) onto HLA-DRB1*0401. The HTRF assay technology is based on the energy transfer between two fluorophores, a donor and an acceptor, when in close proximity. The HLA-DR4 protein construct was uniquely designed for this assay and has (i) the α and […] subunits fused to human Fc chains and (ii) the invariant chain-associated peptide (CLIP peptide, aa85-101), the universal moderate/low-affinity HLA-DR binder, attached to the beta chain through a HRV3C protease-cleavable linker.
Because of the low stability of peptide free HLA-DR4 heterodimer, the construct was purified and delivered with CLIP peptide attached to the N-terminal of the β chain. The HLA-DR4 heterodimer was pre-treated with 3 μL HRV3C protease (Novagen E71493-3) (˜2 U/μL) per mg of the cleavable protein to cleave CLIP peptide and incubated overnight (>16 hrs) at 4° C. This method yielded at least 80% cleavage and allowed the CLIP peptide to be potentially exchanged with the fluorescently labeled high affinity cit-CII1236-1249 peptide. A batch of […] protein with CLIP cleaved was prepared for multiple experiments and was stable for several months when stored at 4° C.
In this assay, anti-human Fc antibody labeled with Tb-Cryptate probe was used as the donor (commercially available from Cisbio—PAb Anti-human IgG-Tb Cryptate, Cat #61HFCTAB) and high affinity peptide Citrullinated CII (cit-CII) labeled with Alexa 647 fluorophore was utilized as the acceptor. Inhibitors of the exchange of the pre-cleaved CLIP peptide for the high affinity cit-CII1236-1249 peptide onto HLA-DRB1*04:01 caused a decrease in HTRF signal as measured by the ratio of the 665 nm/620 nm emitted signal. Screening compounds were robotically pre-dispensed (150 nL, Hummingbird, DigiLab/CyBio AG) onto black, round bottom, nontreated, 1536-well assay plates (Corning #3939), were incubated with 3 nM HLA-DR4 (with CLIP cleaved) plus 1 nM Human IgG-Tb (anti-Fc-Tb) Antibody for 45 min prior to addition of 40 nM Cit-CII peptide labeled with Alexa-647. The negative control was DMSO plus 1 nM Human IgG-Tb (anti-Fc-Tb) Antibody, incubated for 45 minutes before addition of 40 nM Cit-CII peptide labeled with Alexa-647. The positive control was DMSO plus 3 nM HLA-DR4 (with CLIP cleaved) plus 1 nM Human IgG-Tb (anti-Fc-Tb) Antibody with 40 nM Cit-CII peptide labeled with Alexa-647 added after a 45-minute incubation. Plates were centrifuged at 1000 rpm for 1 minute and then incubated at 37° C., at 90% relative humidity for 90 minutes. After incubation, plates were read on a spectrophotometer, the Pherastar FS (BMG Labtech), in HTRF mode. The HTRF ratio as well as percent inhibition was calculated. Curve fitting and IC50 calculation for dose response data was performed by Microsoft Excel, 3DX (Janssen proprietary software) or Graphpad Prism (Graphpad Software, San Diego, CA). […]

SMILES	IC50 [1]	IC50 (HLA-DRB1*0401)	IC50 ([1]; Mus musculus, T-cell)
Cc1cc([C@H](Oc2cc3c(cc2F)C(=O)CCO3)c2ccc(C(N)=O)cc2)cc(C)n1 (single isomer, unassigned) [Example 109a, (*R)-4-((2,6-dimethylpyridin-4-yl)((6-fluoro-4-oxochroman-7-yl)oxy)methyl)benzamide]	1.1 µM	0.21 µM	–
Cc1c(O[C@@H](c2ccncc2)c2cccc(F)c2)c(F)cc2c1OCCC2=O (single isomer, unassigned) [Example 96b, (*S)-6-fluoro-7-((3-fluorophenyl)(pyridin-4-yl)methoxy)-8-methylchroman-4-one]	–	0.47 µM	> 15 µM
Cc1cc([C@H](Oc2ccc3c(c2C)OCCC3=O)c2ccc(C(N)=O)cc2)cc(C)n1 (single isomer, unassigned) [Example 111a, (*R)-4-((2,6-dimethylpyridin-4-yl)((8-methyl-4-oxochroman-7-yl)oxy)methyl)benzamide]	–	0.49 µM	0.6 µM
COc1ccccc1[C@@H](Oc1ccc2c(c1)OCCC2=O)c1ccncc1 (single isomer, unassigned) [Example 14b, (*S)-7-((2-Methoxyphenyl)(pyridin-4-yl)methoxy)chroman-4-one]	–	1.9 µM	11 µM
NC(=O)c1ccc([C@@H](Oc2ccc3c(c2)OCCC3=O)c2ccncc2-c2ccccc2)cc1 (single isomer, unassigned) [Example 25a, (*R)-4-(((4-oxochroman-7-yl)oxy)(3-phenylpyridin-4-yl)methyl)benzamide]	–	0.48 µM	6.4 µM
Cc1c(O[C@H](c2ccc(C(N)=O)cc2)c2cccc[n+]2[O-])ccc2c1OCCC2=O (single isomer, unassigned) [Example 65a, (*R)-2-((4-carbamoylphenyl)((8-methyl-4-oxochroman-7-yl)oxy)methyl)pyridine 1-oxide]	> 15 µM	30 µM	–
Cc1c(OC2CCCc3cc(C#N)ccc32)ccc2c1OCCC2=O (racemic) [Example 122, (R,S)-5-((8-Methyl-4-oxochroman-7-yl)oxy)-5,6,7,8-tetrahydronaphthalene-2-carbonitrile]	–	1.1 µM	15 µM
NC(=O)c1ccc([C@H](Oc2ccc3c(c2)OCCC3=O)c2ccncc2N)cc1 (single isomer, unassigned) [Example 27b, (*S)-4-((3-aminopyridin-4-yl)((4-oxochroman-7-yl)oxy)methyl)benzamide]	–	6.4 µM	> 15 µM
NC(=O)c1ccccc1[C@@H](Oc1ccc2c(c1)OCCC2=O)c1ccncc1 (single isomer, unassigned) [Example 8b, (*S)-2-(((4-Oxochroman-7-yl)oxy)(pyridin-4-yl)methyl)benzamide]	–	0.82 µM	6.5 µM
COc1ccc([C@@H](Oc2c(F)cc3c(c2C)OCCC3=O)c2ccncc2)cc1F (single isomer, unassigned) [Example 97b, (*S)-6-fluoro-7-((3-fluoro-4-methoxyphenyl)(pyridin-4-yl)methoxy)-8-methylchroman-4-one]	–	0.38 µM	> 15 µM
CCc1cc(O[C@H](c2ccncc2)c2ccc(C(N)=O)cc2)cc2c1C(=O)CCO2 (single isomer, unassigned) [Example 99b, (*S)-4-(((5-ethyl-4-oxochroman-7-yl)oxy)(pyridin-4-yl)methyl)benzamide]	–	> 89 µM	5.5 µM
COc1ccc([C@@H](Oc2c(F)cc3c(c2C)OCCC3=O)c2ccncc2)cc1 (single isomer, unassigned) [Example 103a, (*R)-6-fluoro-7-((4-methoxyphenyl)(pyridin-4-yl)methoxy)-8-methylchroman-4-one]	–	2.9 µM	15 µM
N#Cc1ccccc1[C@@H](Oc1ccc2c(c1)OCCC2=O)c1ccncc1 (single isomer, unassigned) [Example 7b, (*S)-2-(((4-Oxochroman-7-yl)oxy)(pyridin-4-yl)methyl)benzonitrile]	–	0.96 µM	5.4 µM
NC(=O)c1ccc([C@@H](Oc2ccc3c(c2)OCCC3=O)c2ccncn2)cc1 (single isomer, unassigned) [Example 33a, (*R)-4-(((4-Oxochroman-7-yl)oxy)(pyrimidin-4-yl)methyl)benzamide]	–	0.58 µM	8.7 µM
O=C1CCOc2cc(O[C@@H](c3ccncc3)c3cccc(O)c3)ccc21 (single isomer, unassigned) [Example 5b, (*S)-7-((3-Hydroxyphenyl)(pyridin-4-yl)methoxy)chroman-4-one]	–	14 µM	5.2 µM
Cc1c(O[C@@H](c2ccc(C(N)=O)cc2)c2ccc(F)c(F)c2)c(F)cc2c1OCCC2=O (single isomer, unassigned) [Example 91b, (*S)-4-((3,4-difluorophenyl)((6-fluoro-8-methyl-4-oxochroman-7-yl)oxy)methyl)benzamide]	–	0.35 µM	> 15 µM
Cc1cc(COc2ccc3c(c2C(C)C)OCCC3=O)cc(C)n1 [Example 117, 7-((2,6-Dimethylpyridin-4-yl)methoxy)-8-isopropylchroman-4-one]	–	0.68 µM	3.1 µM
CCCc1c(O[C@H](c2ccncc2)c2ccc(C(N)=O)cc2)ccc2c1OCCC2=O (single isomer, unassigned) [Example 80b, (*S)-4-(((4-Oxo-8-propylchroman-7-yl)oxy)(pyridin-4-yl)methyl)benzamide]	–	0.96 µM	–
